Results from ChEMBL document CHEMBL1201862, “PubChem BioAssay data set” (2004).
Values belong to the compound of their own block, whether it stands above or below them. Active and inactive are the calls of the source.

Legend:
[1] = biological target: T1, G-protein coupled receptor 35 (Homo sapiens, UniProt Q9HC97); assay: SAR analysis of Agonists of the GPR35 Receptor using an Image-Based Assay - Set 4. [Related pubchem assays (depositor defined):AID2013, AID2026]; format: functional
Cannabinoid receptor 1 [2] = biological target: T2, Cannabinoid receptor 1 (Homo sapiens, UniProt P21554); assay: SAR analysis of agonists of the Cannabinoid Receptor 1 using an Image-Based Assay - Set 4. [Related pubchem assays (depositor defined):AID2013, AID2026]; format: functional
[3] = biological target: T1, G-protein coupled receptor 35; assay: SAR analysis of Antagonists of the GPR35 Receptor using an Image-Based Assay - Set 6. [Related pubchem assays (depositor defined):AID2013, AID2026]; format: functional
Cannabinoid receptor 1 [4] = biological target: T2, Cannabinoid receptor 1; assay: SAR analysis of antagonists of the Cannabinoid Receptor 1 using an Image-Based Assay - Set 4. [Related pubchem assays (depositor defined):AID2013, AID2026]; format: functional
[5] = biological target: G-protein coupled receptor 55 (Homo sapiens, UniProt Q9Y2T6); assay: SAR Analysis of Selective Antagonists of GPR55 using an Image-Based Assay - Set 4. [Related pubchem assays (depositor defined):AID2013, AID2026]; format: functional;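 note: antagonism of response to 5 µM lysophosphatidylinositol agonist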
Cannabinoid receptor 2 [6] = biological target: T3, Cannabinoid receptor 2 (Homo sapiens, UniProt P34972); assay: SAR analysis of antagonists of the Cannabinoid Receptor 2 using an Image-Based Assay - Set 3. [Related pubchem assays (depositor defined):AID2013, AID2026]; format: functional
Cannabinoid receptor 2 [7] = biological target: T3, Cannabinoid receptor 2; assay: SAR analysis of agonists of the Cannabinoid Receptor 2 using an Image-Based Assay - Set 3. [Related pubchem assays (depositor defined):AID2013, AID2026]; format: functional
[8] = biological target: T4, Mannose-6-phosphate isomerase (Homo sapiens, UniProt P34949); assay: MPI inhibition at elevated mannose 6-phosphate – biochemical, fluorescence intensity, high mannose 6-phosphate, primary screen (AID 1220)
T4 sequence (P34949 whole entry): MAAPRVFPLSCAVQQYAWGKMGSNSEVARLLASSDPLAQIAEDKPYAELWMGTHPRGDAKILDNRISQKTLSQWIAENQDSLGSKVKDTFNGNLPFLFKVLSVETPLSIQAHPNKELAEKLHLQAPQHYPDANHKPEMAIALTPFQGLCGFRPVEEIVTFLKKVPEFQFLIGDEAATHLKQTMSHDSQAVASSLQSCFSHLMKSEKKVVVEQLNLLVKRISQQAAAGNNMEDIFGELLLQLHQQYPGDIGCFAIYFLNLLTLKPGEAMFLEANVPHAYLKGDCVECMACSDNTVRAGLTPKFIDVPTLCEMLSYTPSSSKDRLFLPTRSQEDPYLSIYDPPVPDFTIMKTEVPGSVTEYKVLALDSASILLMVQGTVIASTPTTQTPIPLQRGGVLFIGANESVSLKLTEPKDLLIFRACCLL

Coagulation factor XII [9] = biological target: T5, Coagulation factor XII (Homo sapiens, UniProt P00748); assay: activated coagulation factor XII inhibitor potency, concentration-effect curve, cell-free (AID 716); format: functional
T5 sequence (P00748 whole entry): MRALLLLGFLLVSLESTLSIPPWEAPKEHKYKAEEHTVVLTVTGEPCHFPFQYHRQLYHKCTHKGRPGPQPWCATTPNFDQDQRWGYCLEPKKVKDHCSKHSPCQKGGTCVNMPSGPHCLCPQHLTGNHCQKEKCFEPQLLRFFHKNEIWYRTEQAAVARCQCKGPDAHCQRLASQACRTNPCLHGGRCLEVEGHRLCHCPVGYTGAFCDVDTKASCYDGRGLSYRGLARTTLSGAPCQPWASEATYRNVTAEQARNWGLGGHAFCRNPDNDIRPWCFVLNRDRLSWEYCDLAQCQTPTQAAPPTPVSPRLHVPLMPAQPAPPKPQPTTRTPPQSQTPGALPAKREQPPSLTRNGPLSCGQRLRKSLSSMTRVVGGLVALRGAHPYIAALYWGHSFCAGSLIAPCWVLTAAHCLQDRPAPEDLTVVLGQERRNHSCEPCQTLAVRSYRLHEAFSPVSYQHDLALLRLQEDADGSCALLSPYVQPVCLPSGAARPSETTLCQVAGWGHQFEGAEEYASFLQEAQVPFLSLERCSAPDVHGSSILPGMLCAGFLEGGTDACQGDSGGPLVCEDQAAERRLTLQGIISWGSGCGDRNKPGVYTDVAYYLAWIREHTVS

HEK293 [10] = assay: inhibition of NOD1-driven NF-kB reporter – cell-based, luminescence, uHTS, primary screen (AID 1578); format: functional; settings: Homo sapiens
HEK293 [11] = assay: cells; format: functional, cell-based; settings: Homo sapiens
HEK293 [12] = assay: cells; format: functional, cell-based; settings: Homo sapiens; remark: listed apart in the source
[13] = biological target: Nucleotide-binding oligomerization domain-containing protein 2 (Homo sapiens, UniProt Q9HC29); assay: inhibition of NOD2-driven NF-kB reporter – cell-based, luminescence, uHTS, HEK293 (AID 1566); format: functional
HEK293 [14] = assay: NOD2 signaling inhibitors in MDP-stimulated cells, cell-based, uHTS, luminescence (AID 2001); format: functional; settings: Homo sapiens
HEK293 [15] = assay: cells; format: functional, cell-based; settings: Homo sapiens; remark: listed apart in the source
Hexokinase = Hexokinase (Trypanosoma brucei, UniProt Q38C41); assay: Confirmation assay for inhibitors of Trypanosoma brucei hexokinase 1-Analogue-first series. [Related pubchem assays (depositor defined):AID1430, AID1632, AID2516, AID2560, AID2579, AID2600, AID449725, AID492951]; format: functional
Coagulation factor XII [16] = biological target: T5, Coagulation factor XII; format: functional

T1 sequence (Q9HC97 whole entry): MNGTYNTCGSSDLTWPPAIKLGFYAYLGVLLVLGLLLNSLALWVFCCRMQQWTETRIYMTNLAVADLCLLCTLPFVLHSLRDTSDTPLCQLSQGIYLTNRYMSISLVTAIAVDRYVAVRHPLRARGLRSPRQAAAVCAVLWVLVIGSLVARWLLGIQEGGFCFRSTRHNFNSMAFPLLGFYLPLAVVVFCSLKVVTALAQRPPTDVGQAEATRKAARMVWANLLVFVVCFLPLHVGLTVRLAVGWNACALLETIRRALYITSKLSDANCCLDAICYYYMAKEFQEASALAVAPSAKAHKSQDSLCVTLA
T3 sequence (P34972 whole entry): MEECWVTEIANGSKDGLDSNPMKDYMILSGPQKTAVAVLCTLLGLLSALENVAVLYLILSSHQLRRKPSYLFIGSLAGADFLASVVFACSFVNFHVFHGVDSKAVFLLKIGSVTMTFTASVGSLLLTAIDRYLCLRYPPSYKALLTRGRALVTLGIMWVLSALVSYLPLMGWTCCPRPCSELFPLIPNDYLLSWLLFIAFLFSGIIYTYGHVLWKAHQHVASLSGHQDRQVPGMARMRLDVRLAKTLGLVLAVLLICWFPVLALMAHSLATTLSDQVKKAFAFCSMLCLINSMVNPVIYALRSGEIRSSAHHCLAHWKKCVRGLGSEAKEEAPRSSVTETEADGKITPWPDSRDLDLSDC
T2 sequence (P21554 whole entry): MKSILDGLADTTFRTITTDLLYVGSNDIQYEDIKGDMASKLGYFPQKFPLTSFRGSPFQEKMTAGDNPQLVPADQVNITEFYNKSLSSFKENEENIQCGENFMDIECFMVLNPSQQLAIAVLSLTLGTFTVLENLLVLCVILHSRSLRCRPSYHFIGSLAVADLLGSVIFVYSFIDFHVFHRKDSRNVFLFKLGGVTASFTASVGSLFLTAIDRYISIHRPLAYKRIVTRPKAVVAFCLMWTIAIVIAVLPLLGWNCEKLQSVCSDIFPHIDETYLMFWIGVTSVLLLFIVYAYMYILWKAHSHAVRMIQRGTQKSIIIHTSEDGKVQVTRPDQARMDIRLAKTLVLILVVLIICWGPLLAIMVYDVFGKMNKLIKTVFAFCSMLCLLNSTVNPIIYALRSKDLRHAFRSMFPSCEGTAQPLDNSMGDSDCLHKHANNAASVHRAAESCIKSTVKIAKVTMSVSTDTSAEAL
G-protein coupled receptor 55, sequence (Q9Y2T6 whole entry): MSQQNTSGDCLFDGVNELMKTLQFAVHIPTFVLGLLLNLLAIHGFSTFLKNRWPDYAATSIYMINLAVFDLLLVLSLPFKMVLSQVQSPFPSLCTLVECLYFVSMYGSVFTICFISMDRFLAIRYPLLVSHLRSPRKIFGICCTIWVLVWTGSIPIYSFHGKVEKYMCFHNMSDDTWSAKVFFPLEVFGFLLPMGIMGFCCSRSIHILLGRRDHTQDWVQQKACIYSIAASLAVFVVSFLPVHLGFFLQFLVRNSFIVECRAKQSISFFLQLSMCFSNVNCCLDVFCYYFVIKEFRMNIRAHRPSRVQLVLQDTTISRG
Hexokinase, sequence (Q38C41 whole entry): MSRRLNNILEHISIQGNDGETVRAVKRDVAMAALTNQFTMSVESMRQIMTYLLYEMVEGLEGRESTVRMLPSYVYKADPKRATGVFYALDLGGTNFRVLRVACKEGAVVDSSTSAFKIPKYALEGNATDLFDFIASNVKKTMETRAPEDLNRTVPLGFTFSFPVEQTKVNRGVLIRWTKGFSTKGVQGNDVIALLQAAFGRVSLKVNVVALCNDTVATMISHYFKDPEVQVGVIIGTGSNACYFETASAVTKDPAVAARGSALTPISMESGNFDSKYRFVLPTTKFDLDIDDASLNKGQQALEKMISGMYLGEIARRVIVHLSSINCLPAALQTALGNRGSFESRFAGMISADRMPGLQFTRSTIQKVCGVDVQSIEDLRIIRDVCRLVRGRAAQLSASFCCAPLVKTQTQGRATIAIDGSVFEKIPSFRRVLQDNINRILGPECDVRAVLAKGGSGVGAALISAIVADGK
Nucleotide-binding oligomerization domain-containing protein 2, sequence (Q9HC29 whole entry, the tested form may be a part): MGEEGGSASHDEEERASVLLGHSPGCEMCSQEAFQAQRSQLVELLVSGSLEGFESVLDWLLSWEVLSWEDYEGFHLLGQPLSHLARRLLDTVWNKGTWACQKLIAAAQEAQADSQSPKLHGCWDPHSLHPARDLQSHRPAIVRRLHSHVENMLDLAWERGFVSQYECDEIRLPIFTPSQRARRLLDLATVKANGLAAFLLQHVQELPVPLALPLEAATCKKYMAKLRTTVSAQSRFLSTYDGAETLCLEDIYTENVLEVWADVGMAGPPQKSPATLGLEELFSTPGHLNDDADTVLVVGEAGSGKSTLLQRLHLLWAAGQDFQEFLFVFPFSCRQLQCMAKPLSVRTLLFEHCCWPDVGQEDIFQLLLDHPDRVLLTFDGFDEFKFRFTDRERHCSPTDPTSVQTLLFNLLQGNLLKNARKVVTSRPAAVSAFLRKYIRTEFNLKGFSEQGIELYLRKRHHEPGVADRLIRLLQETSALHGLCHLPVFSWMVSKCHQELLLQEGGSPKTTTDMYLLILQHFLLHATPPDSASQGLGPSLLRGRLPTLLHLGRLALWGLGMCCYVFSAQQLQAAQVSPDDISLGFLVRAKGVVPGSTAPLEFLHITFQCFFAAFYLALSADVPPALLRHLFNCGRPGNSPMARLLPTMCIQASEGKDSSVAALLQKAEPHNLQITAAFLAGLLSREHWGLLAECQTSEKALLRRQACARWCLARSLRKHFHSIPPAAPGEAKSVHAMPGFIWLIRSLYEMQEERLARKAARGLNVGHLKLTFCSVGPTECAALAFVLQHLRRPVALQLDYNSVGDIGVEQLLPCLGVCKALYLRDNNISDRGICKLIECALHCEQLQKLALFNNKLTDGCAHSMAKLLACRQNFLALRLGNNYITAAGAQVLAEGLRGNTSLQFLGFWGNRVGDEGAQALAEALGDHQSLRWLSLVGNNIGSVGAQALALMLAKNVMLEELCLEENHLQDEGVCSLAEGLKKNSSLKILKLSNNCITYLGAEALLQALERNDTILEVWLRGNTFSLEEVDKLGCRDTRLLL

EC50 [1]: > 32 µM (inactive)
EC50 (Cannabinoid receptor 1 [2]): > 32 µM (inactive)
IC50 [3]: > 32 µM (inactive)
IC50 (Cannabinoid receptor 1 [4]): 1.68 µM (active)
IC50 [5]: 3.95 µM (active)
IC50 (Cannabinoid receptor 2 [6]): 10.4 µM (inactive)
EC50 (Cannabinoid receptor 2 [7]): > 32 µM (inactive)
SMILES: Cc1nnc(-c2cccc(Br)c2)c2cn(-c3ccccc3)nc12

IC50 [8]: > 50 µM (not active)
IC50 (Coagulation factor XII [9]): > 50 µM (inactive)
SMILES: CN1CC2(Cc3c1ccc1ccccc31)C(=O)OC(C)(C)OC2=O

SMILES: COc1cc2c(cc1OC)C(c1ccc(-c3cc(Cl)ccc3Cl)o1)=NCC2
EC50 (HEK293 [10]): > 20 µM (inactive)
IC50 (HEK293 [11]): 5.36 µM (active)
IC50 (HEK293 [12]): > 20 µM (inactive)
EC50 [13]: > 20 µM (inactive)
IC50 (HEK293 [14]): 2.75 µM (active)
IC50 (HEK293 [15]): > 20 µM (inactive)

SMILES: COc1ccc(C(=O)Nc2ccc(Cl)cc2C(=O)O)cc1
IC50 (Hexokinase): > 25 µM (inactive)

IC50 (Coagulation factor XII [16]): > 50 µM (inactive)
SMILES: CC12CCC(C(=O)NC(c3ccccc3)c3ccccc3)(OC1=O)C2(C)C (configuration not stated)
